pIC50: −log10 of the molar value.
Experiments:
PARP1 = PARP1 (Homo sapiens, UniProt P09874); experiment: Inhibition of PARP1 enzyme activity (ELISA, chemiluminescence); assay type: biochemical; conditions: for IC50: ELISA, histone-coated plate, NAD+, 60 min at 25 °C; for Selectivity PARP2/PARP1: ratio of PARP2 IC50 to PARP1 IC50
Procedure: Experimental Objective: To evaluate the inhibitory effect of the compounds of the present invention on the enzyme activities of PARP1 and PARP2 using ELISA.
• 1. histone-coated 384-well plates was prepared: 25 µL of histone solution was added to each well and incubated overnight at 4 °C. • 2. PBST buffer, blocking buffer (PBS buffer with 5% BSA and 0.05% Tween-20 added) and detection buffer (20 mM HEPES pH 7.5 + 100 mM NaCl + 2 mM DTT + 0.002% Tween-20 + 0.1% BSA) were prepared. • 3. The histone-coated 3 84-well plate was washed three times with PBST buffer, blocked at room temperature with 50 µL blocking buffer for 1 hour, and then washed three times with PBST buffer. • 4. Test compounds were prepared as 2000-fold stock solutions in DMSO. 50 nL of the stock solution was mixed with 19.95 µL detection buffer, and 5 µL of the gradient-diluted test compound was transferred to each well. • 5. Enzymatic reaction (PARP1): PARP1 & DNA mix was pre-incubated at 25 °C for 10 minutes. 10 µL of the PARP1 & DNA mix was added to each well and incubated with the test compound at room temperature for 10 minutes. […] Finally, the 384-well plate was washed three times with PBST buffer. Enzymatic reaction (PARP2): PARP2 was pre-incubated at 25 °C for 10 minutes. 10 µL of PARP2 was added to each well and incubated with the test compound at room temperature for 10 minutes. […] Finally, the 384-well plate was washed three times with PBST buffer. • 6. Detection (PARP1): 20 µL of anti-Poly/Mono-ADP Ribose Rabbit mAb was added and incubated at room temperature for 1.5 hours, followed by three washes of the 384-well plate with PBST buffer. Then, 20 µL of diluted anti-rabbit IgG, HRP-linked Antibody (diluted 1:2000 in blocking buffer) was added and incubated at room temperature for 1 hour. After washing the plate three times with PBST buffer, 25 µL of a 1:1 mixture of Femto-ECL Substrate A and Femto-ECL Substrate B was added. Detection (PARP2): 25 µL of Strep-HRP was added and incubated at room temperature for 1 hour, followed by three washes of the 384-well plate with PBS buffer. Then, 25 µL of a 1:1 mixture of Femto-ECL Substrate A and Femto-ECL Substrate B was added. • 7. Chemiluminescence intensity was measured using an Envision multimode microplate reader. • 8. Data Processing
The inhibition rate was calculated in Excel using formula (1). inh% = (Max−Signal)/(Max−Min)*100 [formula]
The IC50 value was obtained by fitting the data in XL-Fit using formula (2). Y = bottom + (top−bottom)/(1+(IC50/X)*HillSlope); [formula] wherein Y is the inhibition percentage and X is the compound concentration.

PARP2 = PARP2 (Homo sapiens, UniProt Q9UGN5); experiment: biochemical;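 note: PARP2 enzyme ELISA on histone-coated plates, Strep-HRP detection with chemiluminescence read-out, 10 min compound preincubation with enzyme, inhibition scaled between Max and Min signal controls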
PARP2, sequence (Q9UGN5 whole entry): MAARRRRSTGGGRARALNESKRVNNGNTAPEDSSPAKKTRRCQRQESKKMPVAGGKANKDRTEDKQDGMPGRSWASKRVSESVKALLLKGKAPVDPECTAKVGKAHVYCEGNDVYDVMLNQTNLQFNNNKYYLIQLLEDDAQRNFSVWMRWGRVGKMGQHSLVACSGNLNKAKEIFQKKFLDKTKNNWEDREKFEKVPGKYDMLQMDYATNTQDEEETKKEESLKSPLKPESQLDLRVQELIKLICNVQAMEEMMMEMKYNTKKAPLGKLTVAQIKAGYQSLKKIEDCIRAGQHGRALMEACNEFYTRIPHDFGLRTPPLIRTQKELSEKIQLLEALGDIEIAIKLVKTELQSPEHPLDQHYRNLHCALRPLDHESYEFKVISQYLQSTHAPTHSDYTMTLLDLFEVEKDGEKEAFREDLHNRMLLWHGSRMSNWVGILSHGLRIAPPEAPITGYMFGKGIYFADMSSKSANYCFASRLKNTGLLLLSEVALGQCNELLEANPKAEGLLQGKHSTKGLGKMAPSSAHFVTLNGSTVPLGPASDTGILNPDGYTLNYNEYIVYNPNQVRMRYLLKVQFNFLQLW

DLD-1 BRCA2(-/-) cells = experiment: Inhibition of proliferation of DLD-1 BRCA2(-/-) cells (CTG method); assay type: cell-based; conditions: Homo sapiens, DLD-1, 168 h; 7 days incubation, CellTiter-Glo
Procedure: • 1. Cell Pretreatment: DLD-1 BRCA2(-/-) cells were cultured in growth medium 1640 + 10% FBS (fetal bovine serum) + 1% Penicillin-Streptomycin. Cells in the logarithmic growth phase were digested with trypsin-EDTA, centrifuged, and resuspended. DLD-1 BRCA2(-/-) cells were seeded at 1,000 cells/well in sterile 96-well opaque plates, 75 µl per well. After seeding, the cell culture plates were incubated overnight at 37 °C with 5% CO2 before adhesion, followed by treatment with the test compounds. • 2. DLD-1 BRCA2(-/-) Cell Drug Treatment: The test compound was prepared as a 10 mM stock solution using DMSO. The test compound was then diluted to a 4× working solution using growth medium (starting at 40 µM, with 9 4-fold dilutions). 25 µl of 4× working solution was added to each well to achieve final concentrations of 10000, 2500, 625, 156, 39, 9.7, 2.4, 0.61, and 0.152 nM, respectively. Blank control wells containing the same DMSO concentration were also included, with three replicates for each concentration. After adding the test compound, the cells were incubated at 37 °C with 5% CO2 for 7 days. • 3. After incubation, 100 µl of CellTiter-Glo® Reagent was added to each well, and […] intensity was measured. A curve was fitted using GraphPad software, and the IC50 value for cell proliferation inhibition was calculated.

PARP1, sequence (P09874 whole entry): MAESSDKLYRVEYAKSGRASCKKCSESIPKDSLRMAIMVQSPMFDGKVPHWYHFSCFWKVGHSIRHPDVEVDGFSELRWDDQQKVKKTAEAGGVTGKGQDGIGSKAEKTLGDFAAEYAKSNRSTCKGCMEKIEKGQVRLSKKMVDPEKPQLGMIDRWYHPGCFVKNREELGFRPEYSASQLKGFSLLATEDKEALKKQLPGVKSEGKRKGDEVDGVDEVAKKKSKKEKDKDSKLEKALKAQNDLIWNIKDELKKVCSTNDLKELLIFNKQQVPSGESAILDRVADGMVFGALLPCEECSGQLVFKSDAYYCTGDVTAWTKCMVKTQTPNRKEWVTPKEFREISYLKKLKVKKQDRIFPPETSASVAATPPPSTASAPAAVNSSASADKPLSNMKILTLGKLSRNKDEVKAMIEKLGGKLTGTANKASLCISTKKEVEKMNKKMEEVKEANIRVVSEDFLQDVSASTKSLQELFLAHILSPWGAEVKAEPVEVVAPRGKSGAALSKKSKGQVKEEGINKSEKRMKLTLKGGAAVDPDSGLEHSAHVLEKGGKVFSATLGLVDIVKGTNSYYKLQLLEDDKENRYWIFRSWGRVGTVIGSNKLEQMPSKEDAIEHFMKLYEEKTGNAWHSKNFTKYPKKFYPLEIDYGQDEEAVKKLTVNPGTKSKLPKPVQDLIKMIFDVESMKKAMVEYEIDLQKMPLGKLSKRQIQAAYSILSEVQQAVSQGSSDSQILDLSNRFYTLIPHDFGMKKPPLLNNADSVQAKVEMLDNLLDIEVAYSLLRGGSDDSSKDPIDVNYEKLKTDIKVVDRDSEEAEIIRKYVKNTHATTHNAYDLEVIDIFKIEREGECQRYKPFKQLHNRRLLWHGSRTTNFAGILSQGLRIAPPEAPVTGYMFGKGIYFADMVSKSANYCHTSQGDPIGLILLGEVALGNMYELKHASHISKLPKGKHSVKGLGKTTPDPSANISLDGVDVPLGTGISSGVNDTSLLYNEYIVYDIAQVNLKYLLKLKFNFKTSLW

| Compound | IC50 (PARP1) | Selectivity PARP2/PARP1 (PARP1) | pIC50 (PARP2) | pIC50 (DLD-1 BRCA2(-/-) cells) |
| --- | --- | --- | --- | --- |
| CNC(=O)c1ccc(N2CCN(Cc3cc(C#CC4CC4)c4nc(C)c(=O)[nH]c4c3F)CC2)c(F)n1 [Example 22, 5-(4-((8-(cyclopropylethynyl)-5-fluoro-2-methyl-3-oxo-3,4-dihydroquinoxalin-6-yl)methyl)piperazin-1-yl)-6-fluoro-N-methylpicolinamide] | 5.5 nM | 1813.7 | < 5.00 | 7.50 |
| CC#Cc1cc(CN2CC=C(c3ccc(C(=O)NC)nc3F)CC2)c(F)c2[nH]c(=O)c(C)nc12 [Example 23, 2-fluoro-1'-((5-fluoro-2-methyl-3-oxo-8-(prop-1-yn-1-yl)-3,4-dihydroquinoxalin-6-yl)methyl)-N-methyl-1',2',3',6'-tetrahydro-[3,4'-bipyridine]-6-carboxamide] | 2.4 nM | 4113.1 | < 5.00 | – |
| CNC(=O)c1ccc(N2CCN(Cc3cc(Oc4cccc(F)c4)c4nc(C)c(=O)[nH]c4c3)CC2)c(F)n1 [Example 28, 6-fluoro-5-(4-((8-(3-fluorophenoxy)-2-methyl-3-oxo-3,4-dihydroquinoxalin-6-yl)methyl)piperazin-1-yl)-N-methylpicolinamide] | 1.8 nM | 356.3 | 6.18 | – |
| CC#Cc1cc(CN2CCN(c3ccc(C#N)nc3)CC2)cc2[nH]c(=O)c(C)nc12 [Example 36, 5-(4-((2-methyl-3-oxo-8-(prop-1-yn-1-yl)-3,4-dihydroquinoxalin-6-yl)methyl)piperazin-1-yl)picolinonitrile] | 3 nM | 139.8 | 6.38 | – |
| CC#Cc1cc(CN2CCN(c3ccc(C(=O)NC)nc3F)CC2)c(F)c2[nH]c(=O)c(C3CC3)nc12 [Example 48, 5-(4-((2-cyclopropyl-5-fluoro-3-oxo-8-(prop-1-yn-1-yl)-3,4-dihydroquinoxalin-6-yl)methyl)piperazin-1-yl)-6-fluoro-N-methylpicolinamide] | – | – | – | 7.63 |
| CC#Cc1cc(CN2CC=C(c3ccc(C(=O)NC)nc3)CC2)c(F)c2[nH]c(=O)c(C)nc12 [Example 50, 1'-((5-fluoro-2-methyl-3-oxo-8-(prop-1-yn-1-yl)-3,4-dihydroquinoxalin-6-yl)methyl)-N-methyl-1',2',3',6'-tetrahydro-[3,4'-bipyridine]-6-carboxamide] | 3.3 nM | >3042 | < 5.00 | – |
| CC#Cc1cc(CN2CC=C(c3ccc(C(=O)NC)nc3)CC2)cc2[nH]c(=O)c(C)nc12 [Example 51, N-methyl-1'-((2-methyl-3-oxo-8-(prop-1-yn-1-yl)-3,4-dihydroquinoxalin-6-yl)methyl)-1',2',3',6'-tetrahydro-[3,4'-bipyridine]-6-carboxamide] | 7.2 nM | 198.0 | 5.85 | – |
| CNC(=O)c1ccc(C2=CCN(Cc3cc(OC(F)F)c4nc(C)c(=O)[nH]c4c3)CC2)c(C)n1 [Example 58, 1'-((8-(difluoromethoxy)-2-methyl-3-oxo-3,4-dihydroquinoxalin-6-yl)methyl)-N,2-dimethyl-1',2',3',6'-tetrahydro-[3,4'-bipyridine]-6-carboxamide] | 1.1 nM | 2192.4 | 5.61 | 7.87 |
| CNC(=O)c1ccc(C2=CCN(Cc3cc(OC(F)F)c4nc(C)c(=O)[nH]c4c3F)CC2)c(C)n1 [Example 62, 1'-((8-(difluoromethoxy)-5-fluoro-2-methyl-3-oxo-3,4-dihydroquinoxalin-6-yl)methyl)-N,2-dimethyl-1',2',3',6'-tetrahydro-[3,4'-bipyridine]-6-carboxamide] | 6.4 nM | >1554 | < 5.00 | – |

Continued by falling IC50 (PARP1), values first:

| IC50 (PARP1) | Selectivity PARP2/PARP1 (PARP1) | pIC50 (PARP2) | pIC50 (DLD-1 BRCA2(-/-) cells) | Compound |
| --- | --- | --- | --- | --- |
| 12.9 nM | 148.2 | 5.72 | – | CC#Cc1cc(CN2CCN(c3ccc(OC(F)F)nc3)CC2)cc2[nH]c(=O)c(C)nc12 [Example 37, 7-((4-(6-(difluoromethoxy)pyridin-3-yl)piperazin-1-yl)methyl)-3-methyl-5-(prop-1-yn-1-yl)quinoxalin-2(1H)-one] |
| 11.5 nM | 217.3 | 5.60 | – | CNC(=O)c1ccc(N2CCN(Cc3cc(Oc4ccncc4)c4nc(C)c(=O)[nH]c4c3)CC2)c(F)n1 [Example 29, 6-fluoro-N-methyl-5-(4-((2-methyl-3-oxo-8-(pyridin-4-yloxy)-3,4-dihydroquinoxalin-6-yl)methyl)piperazin-1-yl)picolinamide] |
| 10 nM | 1004.6 | < 5.00 | – | CNC(=O)c1ccc(C2=CCN(Cc3cc(C#CC4CC4)c4nc(C)c(=O)[nH]c4c3F)CC2)c(F)n1 [Example 24, 1'-((8-(cyclopropylethynyl)-5-fluoro-2-methyl-3-oxo-3,4-dihydroquinoxalin-6-yl)methyl)-2-fluoro-N-methyl-1',2',3',6'-tetrahydro-[3,4'-bipyridine]-6-carboxamide] |
| 6.9 nM | >1444 | < 5.00 | – | CC#Cc1cc(CN2CC=C(c3ccc(C(=O)NC4CC4)nc3)CC2)c(F)c2[nH]c(=O)c(C)nc12 [Example 67, N-cyclopropyl-1'-((5-fluoro-2-methyl-3-oxo-8-(prop-1-yn-1-yl)-3,4-dihydroquinoxalin-6-yl)methyl)-1',2',3',6'-tetrahydro-[3,4'-bipyridine]-6-carboxamide] |
| 5.7 nM | >1756.9 | < 5.00 | – | CC#Cc1cc(CN2CCN(c3ccc(C(=O)NC)nc3)CC2)c(F)c2[nH]c(=O)c(C)nc12 [Example 40, 5-(4-((5-fluoro-2-methyl-3-oxo-8-(prop-1-yn-1-yl)-3,4-dihydroquinoxalin-6-yl)methyl)piperazin-1-yl)-N-methylpicolinamide] |
| 5.7 nM | 472.0 | 5.57 | – | CNC(=O)c1ccc(N2CCN(Cc3cc(-c4cccc(OC)c4)c4nc(C)c(=O)[nH]c4c3)CC2)c(F)n1 [Example 73] |
| 3.6 nM | 46.9 | 6.77 | – | CNC(=O)c1ccc(N2CCN(Cc3cc(OC(F)(F)F)c4nc(C)c(=O)[nH]c4c3)CC2)c(F)n1 [Example 17, 6-fluoro-N-methyl-5-(4-((2-methyl-3-oxo-8-(trifluoromethoxy)-3,4-dihydroquinoxalin-6-yl)methyl)piperazin-1-yl)picolinamide] |
| 3.6 nM | 46.9 | 6.77 | 8.01 | CNC(=O)c1ccc(N2CCN(Cc3cc(OC(F)(F)F)c4nc(C)c(=O)[nH]c4c3)CC2)c(C)n1 [Example 64, N,6-dimethyl-5-(4-((2-methyl-3-oxo-8-(trifluoromethoxy)-3,4-dihydroquinoxalin-6-yl)methyl)piperazin-1-yl)picolinamide] |
| 2.8 nM | 359.1 | 5.99 | – | CNC(=O)c1ccc(N2CCN(Cc3cc(OC(C)C(F)(F)F)c4nc(C)c(=O)[nH]c4c3)CC2)c(F)n1 (stereo not drawn) [Example 34, 6-fluoro-N-methyl-5-(4-((2-methyl-3-oxo-8-((1,1,1-trifluoropropan-2-yl)oxy)-3,4-dihydroquinoxalin-6-yl)methyl)piperazin-1-yl)picolinamide] |
| 2.5 nM | 18.4 | 7.34 | – | CNC(=O)c1ccc(N2CCN(Cc3cc(C4CCCC4)c4nc(C)c(=O)[nH]c4c3)CC2)c(F)n1 [Example 31, 5-(4-((8-cyclopentyl-2-methyl-3-oxo-3,4-dihydroquinoxalin-6-yl)methyl)piperazin-1-yl)-6-fluoro-N-methylpicolinamide] |
| 2.4 nM | 59.6 | 6.84 | 8.15 | CCNNC(=O)c1ccc(N2CCN(Cc3cc(OC(F)F)c4nc(C)c(=O)[nH]c4c3)CC2)c(F)n1 [Example 66, 5-(4-((8-(difluoromethoxy)-2-methyl-3-oxo-3,4-dihydroquinoxalin-6-yl)methyl)piperazin-1-yl)-N'-ethyl-6-fluoropicolinohydrazide] |
| 2.2 nM | 278.9 | 6.20 | – | CNC(=O)c1ccc(N2CCN(Cc3cc(Oc4ccccc4F)c4nc(C)c(=O)[nH]c4c3)CC2)c(F)n1 [Example 27, 6-fluoro-5-(4-((8-(2-fluorophenoxy)-2-methyl-3-oxo-3,4-dihydroquinoxalin-6-yl)methyl)piperazin-1-yl)-N-methylpicolinamide] |
| 1.9 nM | 42.1 | 7.10 | 8.37 | CCONC(=O)c1ccc(N2CCN(Cc3cc(OC(F)F)c4nc(C)c(=O)[nH]c4c3)CC2)c(F)n1 [Example 65, 5-(4-((8-(difluoromethoxy)-2-methyl-3-oxo-3,4-dihydroquinoxalin-6-yl)methyl)piperazin-1-yl)-N-ethoxy-6-fluoropicolinamide] |

Reference: EP4755880A1, “SUBSTITUTED NITROGEN-CONTAINING BICYCLIC COMPOUND AND USE THEREOF” (Sunshine Lake Pharma Co., Ltd., priority 2023, dated 2025)
